Each structure is given as a SMILES string.

For `CC1(C)CCC(C)(C)c2c(C(O)C#Cc3ccc(C(=O)O)cc3)cc(-c3ccccc3)cc21` (stereo not shown), the melting point was determined as 250 °C.

In turn, `CC1(C)CCSc2c(CC#Cc3ccc(C(=O)O)c(O)c3)cccc21` [Example 6, 2-Hydroxy-4-[3-(4,4-dimethylthiochroman-8-yl)prop-1-ynyl]benzoic Acid] registered a melting point of 190 to 191 °C. Consider `CC1(C)CCSc2cccc(C(O)C#Cc3ccc(C(=O)O)cc3)c21` (stereo not shown) [Example 11, 4-[3-(4,4-Dimethylthiochroman-5-yl)-3-hydroxyprop-1-ynyl]benzoic Acid], for which the melting point worked out at 198 °C. For `COCOc1c(C(O)C#Cc2ccc(C(=O)O)cc2)cc(C(C)(C)C)cc1C(C)(C)C` (stereo not shown) [Example 14, 4-[3-(3,5-Di-tert-butyl-2-(methoxymethoxy)phenyl)-3-hydroxyprop-1-ynyl]benzoic Acid] the value was 197 °C; for `CCOC(=O)c1ccc(C#CCc2cc(C(C)(C)C)cc(C(C)(C)C)c2O)cc1` [Example 16, Ethyl 4-[3-(3,5-di-tert-butyl-2-hydroxyphenyl)prop-1-ynyl]benzoate], 113 to 115 °C.

As to `COc1c(C(O)C#Cc2ccc(C(=O)O)cc2)cc(C(C)(C)C)cc1C(C)(C)C` (stereo not shown) [Example 18, 4-[3-(3,5-Di-tert-butyl-2-methoxyphenyl)-3-hydroxyprop-1-ynyl]benzoic Acid], the melting point was 208 to 209 °C. For `COc1c(CC#Cc2ccc(C(=O)O)cc2)cc(C(C)(C)C)cc1C(C)(C)C` [Example 19, 4-[3-(3,5-Di-tert-butyl-2-methoxyphenyl)prop-1-ynyl]benzoic Acid] the value was 237 to 239 °C; for `COc1c(C(O)C#Cc2ccc(C(=O)O)cc2)cc(-c2ccccc2)cc1C(C)(C)C` (stereo not shown) [Example 23, 4-[3-(5-tert-Butyl-4-methoxybiphenyl-3-yl)-3-hydroxyprop-1-ynyl]benzoic Acid], 165 to 167 °C; for `COc1c(C(C#Cc2ccc(C(=O)O)cc2)OC)cc(C(C)(C)C)cc1C(C)(C)C` (stereo not shown) [Example 25, 4-[3-(3,5-Di-tert-butyl-2-methoxyphenyl)-3-methoxyprop-1-ynyl]benzoic Acid], 162 to 164 °C.

Take `COc1c(CC#Cc2ccc(C(=O)O)cc2)cc(-c2ccccc2)cc1C(C)(C)C` [Example 31, 4-[3-(5-tert-Butyl-4-methoxybiphenyl-3-yl)prop-1-ynyl]benzoic Acid]: the melting point fell in the range of 229 to 231 °C.

What is called melting point is the temperature of the solid-liquid transition.

Source of the values: patent publication US6849658B2, “Biaromatic compounds and pharmaceutical and cosmetic compositions comprising them” (Galderma Research & Development, priority 1997, dated 2005).
